The record followed here is ChEMBL document CHEMBL4376879, “Fragment-to-Lead Medicinal Chemistry Publications in 2018” (J Med Chem, 2020).

The structures appear in SMILES notation. A value given as a limit tells only on which side of the number the result lay.

For one assay, the target named is CREB-binding protein (Homo sapiens, UniProt Q92793). Description: Binding affinity to Poly-Histidine-tagged CBP (unknown origin) expressed in Escherichia coli BL21(DE3) by competition binding assay.
Assay [1] concerns the target cAMP and cAMP-inhibited cGMP 3',5'-cyclic phosphodiesterase 10A (Homo sapiens, UniProt Q9Y233). Briefly: Inhibition of human PDE10A2 using cAMP substrate by HTRF assay.
In assay [2] the target is Beta-2 adrenergic receptor (Homo sapiens, UniProt P07550). Briefly: Inhibition of beta2 adrenoreceptor (unknown origin).
Another assay addresses GTPase HRas (Homo sapiens, UniProt P01112, G12V). Briefly: Inhibition GST-tagged recombinant HRAS G12V mutant (1 to 166 amino acids) (unknown origin) expressed in Escherichia coli C41(DE3) by SPR assay.
Assay [3] concerns the target T1, Glycylpeptide N-tetradecanoyltransferase 1 (Homo sapiens, UniProt P30419).
T1 sequence (P30419 whole entry): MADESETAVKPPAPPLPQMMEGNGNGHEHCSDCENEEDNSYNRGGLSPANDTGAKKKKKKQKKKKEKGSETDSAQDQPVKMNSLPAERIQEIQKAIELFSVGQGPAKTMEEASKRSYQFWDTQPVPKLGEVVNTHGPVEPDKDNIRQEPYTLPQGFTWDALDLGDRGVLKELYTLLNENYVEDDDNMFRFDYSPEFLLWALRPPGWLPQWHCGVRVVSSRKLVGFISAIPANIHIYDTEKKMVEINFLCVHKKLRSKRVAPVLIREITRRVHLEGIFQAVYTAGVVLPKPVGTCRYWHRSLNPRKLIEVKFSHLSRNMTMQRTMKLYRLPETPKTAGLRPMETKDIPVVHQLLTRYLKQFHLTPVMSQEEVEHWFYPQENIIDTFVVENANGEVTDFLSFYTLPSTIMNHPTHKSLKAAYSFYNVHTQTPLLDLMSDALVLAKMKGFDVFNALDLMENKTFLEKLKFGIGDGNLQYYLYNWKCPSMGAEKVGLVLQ
Briefly: Inhibition of human N-myristoyltransferase assessed as reduction in CoASH production by fluorogenic detection based assay.

GTPase HRas, sequence (P01112 whole entry G12V, the tested form may be a part): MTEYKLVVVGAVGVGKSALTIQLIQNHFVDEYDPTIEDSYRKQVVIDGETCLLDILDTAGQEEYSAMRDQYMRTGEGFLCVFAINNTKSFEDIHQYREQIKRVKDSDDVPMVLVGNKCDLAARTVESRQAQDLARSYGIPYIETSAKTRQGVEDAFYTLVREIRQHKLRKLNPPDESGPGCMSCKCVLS
Beta-2 adrenergic receptor, sequence (P07550 whole entry, the tested form may be a part): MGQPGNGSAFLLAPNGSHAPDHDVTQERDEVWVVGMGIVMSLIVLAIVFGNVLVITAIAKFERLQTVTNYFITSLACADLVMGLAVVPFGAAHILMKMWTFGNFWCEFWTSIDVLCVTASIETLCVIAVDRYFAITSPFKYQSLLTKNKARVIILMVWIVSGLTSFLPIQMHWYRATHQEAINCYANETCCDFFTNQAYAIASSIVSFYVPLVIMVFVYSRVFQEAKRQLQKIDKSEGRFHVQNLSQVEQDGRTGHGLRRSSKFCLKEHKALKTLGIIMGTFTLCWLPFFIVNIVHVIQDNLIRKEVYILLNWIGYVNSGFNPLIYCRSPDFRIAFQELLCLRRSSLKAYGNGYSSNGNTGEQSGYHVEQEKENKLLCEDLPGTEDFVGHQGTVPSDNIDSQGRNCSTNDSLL
CREB-binding protein, sequence (Q92793 whole entry): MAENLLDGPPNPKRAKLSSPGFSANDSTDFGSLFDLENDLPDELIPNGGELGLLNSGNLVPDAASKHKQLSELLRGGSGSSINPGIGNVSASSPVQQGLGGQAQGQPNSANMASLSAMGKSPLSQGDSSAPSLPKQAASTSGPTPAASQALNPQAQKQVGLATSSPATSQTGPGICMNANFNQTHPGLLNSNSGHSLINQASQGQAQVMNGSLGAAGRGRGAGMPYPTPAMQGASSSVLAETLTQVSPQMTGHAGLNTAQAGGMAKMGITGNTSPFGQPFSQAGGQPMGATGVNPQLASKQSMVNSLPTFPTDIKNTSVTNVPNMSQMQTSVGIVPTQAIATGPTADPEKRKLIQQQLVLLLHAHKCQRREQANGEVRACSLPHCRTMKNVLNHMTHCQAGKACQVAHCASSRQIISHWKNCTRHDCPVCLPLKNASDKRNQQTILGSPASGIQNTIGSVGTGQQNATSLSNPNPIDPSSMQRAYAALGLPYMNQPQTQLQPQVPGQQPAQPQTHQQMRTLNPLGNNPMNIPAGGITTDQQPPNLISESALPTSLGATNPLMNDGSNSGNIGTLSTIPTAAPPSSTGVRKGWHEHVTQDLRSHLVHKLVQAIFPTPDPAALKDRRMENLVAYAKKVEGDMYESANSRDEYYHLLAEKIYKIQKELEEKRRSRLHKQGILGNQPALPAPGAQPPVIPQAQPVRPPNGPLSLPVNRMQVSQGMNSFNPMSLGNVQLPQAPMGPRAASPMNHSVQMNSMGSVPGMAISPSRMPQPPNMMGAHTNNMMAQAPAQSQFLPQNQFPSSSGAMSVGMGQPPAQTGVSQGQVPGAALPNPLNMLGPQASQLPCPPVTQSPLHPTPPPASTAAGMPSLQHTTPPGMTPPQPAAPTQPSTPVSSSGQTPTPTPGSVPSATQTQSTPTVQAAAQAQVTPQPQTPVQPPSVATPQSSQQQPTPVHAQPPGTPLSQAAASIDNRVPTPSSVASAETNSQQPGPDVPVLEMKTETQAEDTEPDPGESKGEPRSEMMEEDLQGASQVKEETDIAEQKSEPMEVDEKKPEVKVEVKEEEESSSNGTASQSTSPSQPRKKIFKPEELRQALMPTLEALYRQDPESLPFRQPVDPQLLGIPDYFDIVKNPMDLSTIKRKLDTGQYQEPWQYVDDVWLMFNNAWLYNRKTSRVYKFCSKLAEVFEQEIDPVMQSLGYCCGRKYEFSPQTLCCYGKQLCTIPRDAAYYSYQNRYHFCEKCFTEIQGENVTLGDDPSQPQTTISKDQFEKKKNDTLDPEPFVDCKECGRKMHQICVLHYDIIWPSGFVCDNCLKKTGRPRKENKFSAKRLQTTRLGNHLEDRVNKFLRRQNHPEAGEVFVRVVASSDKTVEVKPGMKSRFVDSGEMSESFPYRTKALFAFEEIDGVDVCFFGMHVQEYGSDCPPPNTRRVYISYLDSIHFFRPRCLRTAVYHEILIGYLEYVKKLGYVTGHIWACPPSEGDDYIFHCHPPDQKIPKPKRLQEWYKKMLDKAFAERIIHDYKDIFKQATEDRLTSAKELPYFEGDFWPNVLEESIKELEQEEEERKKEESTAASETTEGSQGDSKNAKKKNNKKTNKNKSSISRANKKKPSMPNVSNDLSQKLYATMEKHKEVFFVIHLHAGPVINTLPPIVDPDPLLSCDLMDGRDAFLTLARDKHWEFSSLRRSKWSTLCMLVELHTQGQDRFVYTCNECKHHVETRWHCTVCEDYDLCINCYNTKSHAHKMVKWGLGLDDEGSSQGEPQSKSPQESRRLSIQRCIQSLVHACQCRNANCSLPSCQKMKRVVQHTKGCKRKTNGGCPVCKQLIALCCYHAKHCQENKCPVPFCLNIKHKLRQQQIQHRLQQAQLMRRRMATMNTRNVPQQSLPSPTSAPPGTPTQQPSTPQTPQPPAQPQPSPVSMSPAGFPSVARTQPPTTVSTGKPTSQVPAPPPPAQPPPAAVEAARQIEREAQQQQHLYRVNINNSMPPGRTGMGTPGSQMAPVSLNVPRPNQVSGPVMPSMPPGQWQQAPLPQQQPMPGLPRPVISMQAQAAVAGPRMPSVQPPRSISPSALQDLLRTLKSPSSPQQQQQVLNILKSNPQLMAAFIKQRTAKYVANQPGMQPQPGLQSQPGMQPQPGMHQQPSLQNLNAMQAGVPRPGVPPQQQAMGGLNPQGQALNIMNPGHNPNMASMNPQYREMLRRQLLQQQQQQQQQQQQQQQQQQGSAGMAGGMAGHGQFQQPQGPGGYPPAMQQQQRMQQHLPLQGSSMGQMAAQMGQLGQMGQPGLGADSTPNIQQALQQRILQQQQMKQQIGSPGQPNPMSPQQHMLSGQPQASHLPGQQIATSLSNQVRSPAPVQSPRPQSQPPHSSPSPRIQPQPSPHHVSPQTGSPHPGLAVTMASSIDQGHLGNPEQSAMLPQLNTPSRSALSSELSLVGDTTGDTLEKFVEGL
cAMP and cAMP-inhibited cGMP 3',5'-cyclic phosphodiesterase 10A, sequence (Q9Y233 whole entry): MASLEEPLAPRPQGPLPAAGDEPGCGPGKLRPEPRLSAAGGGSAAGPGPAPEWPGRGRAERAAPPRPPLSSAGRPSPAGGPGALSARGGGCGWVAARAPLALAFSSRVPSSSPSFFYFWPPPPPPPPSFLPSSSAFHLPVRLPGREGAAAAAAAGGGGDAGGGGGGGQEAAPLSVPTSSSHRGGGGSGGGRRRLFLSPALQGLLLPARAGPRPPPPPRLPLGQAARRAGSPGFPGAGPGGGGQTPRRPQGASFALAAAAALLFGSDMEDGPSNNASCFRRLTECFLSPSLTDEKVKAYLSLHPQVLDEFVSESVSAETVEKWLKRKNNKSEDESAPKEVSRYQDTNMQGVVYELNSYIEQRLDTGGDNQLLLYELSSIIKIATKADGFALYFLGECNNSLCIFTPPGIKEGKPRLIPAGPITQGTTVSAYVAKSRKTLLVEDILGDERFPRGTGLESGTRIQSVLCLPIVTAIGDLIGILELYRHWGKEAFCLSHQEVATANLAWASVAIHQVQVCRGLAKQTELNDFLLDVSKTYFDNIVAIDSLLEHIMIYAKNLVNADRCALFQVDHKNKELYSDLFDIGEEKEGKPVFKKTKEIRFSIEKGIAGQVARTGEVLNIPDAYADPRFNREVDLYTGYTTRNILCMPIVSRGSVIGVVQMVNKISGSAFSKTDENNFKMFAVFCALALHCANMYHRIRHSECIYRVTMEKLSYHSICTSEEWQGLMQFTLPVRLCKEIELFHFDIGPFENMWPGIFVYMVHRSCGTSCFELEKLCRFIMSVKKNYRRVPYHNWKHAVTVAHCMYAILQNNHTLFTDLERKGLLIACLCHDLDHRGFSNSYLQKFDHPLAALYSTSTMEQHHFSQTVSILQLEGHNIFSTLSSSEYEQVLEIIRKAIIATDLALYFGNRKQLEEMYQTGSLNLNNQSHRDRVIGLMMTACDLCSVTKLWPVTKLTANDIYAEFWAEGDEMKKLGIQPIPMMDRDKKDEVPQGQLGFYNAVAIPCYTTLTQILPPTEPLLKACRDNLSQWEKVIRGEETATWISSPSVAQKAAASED

As for `CCOc1ccc(C(C)=O)cc1N`, the Kd on CREB-binding protein came out at 53 µM. `Cc1cc2nccc(-c3ccc(Cl)cc3)n2n1`: the IC50 in assay [1] is < 10 µM. For the compound `Clc1ccc(CNCc2ccc(-c3ncccn3)cc2)cc1Cl`, the IC50 in assay [2] is < 0.001 µM. Turning to `COc1nc(-c2cccc3c2OCCO3)ccc1Nc1ccc(CN(C)C)cc1`, at GTPase HRas, the Kd was found to be 0.051 µM. On to `Cc1nn(C)c(C)c1CCOc1c(-c2ccc3c(c2)c(CN(C)C)nn3C)ccc(F)c1F`, for which, in assay [3], the IC50 was < 0.001 µM. As to `NCc1ccc(-c2ncccn2)cc1`, the IC50 in assay [2] amounted to 10 µM. `O=C(Nc1ccc2ccccc2n1)c1ccco1`: the Kd on GTPase HRas was > 370 µM.
